Results taken from patent publication US5326882A, “Chemiluminescent 3-(substituted Adamant-2'-Ylidene) 1,2-dioxetanes” (Tropix, Inc., priority 1992, dated 1994).

Key:
alkaline phosphatase = alkaline phosphatase (Bos taurus, UniProt P19111); assay: Chemiluminescent signal and signal:background with enhancer polymers (Example XVII); assay type: biochemical
Procedure: Four sets of three tubes each, each tube in each set containing 450 μl of a 0.4 mM aqueous solution of one of the four 1,2-dioxetanes being compared in 0.1M diethanolamine containing 1 mM magnesium chloride, 0.02% sodium azide and 0.1% of the enhancer polymer, pH 10.0 (substrate buffer) were prepared and the background signal from each tube measured using a Berthold LB 952T luminometer (Berthold Instruments; Wildbad, Federal Republic of Germany).
Next, 50 μl of an aqueous solution, 2.83×10^-12 M of alkaline phosphatase in 0.1M diethanolamine containing 1 mM magnesium chloride, 0.02% sodium azide, pH 10.0, (final enzyme concentration 2.83×10^-13 M) was added to each tube and the chemiluminescent signals were measured in the luminometer at 5 and 20 minutes. The intensity of the chemiluminescent signals and the signal: background ratios obtained for each of the four 1,2-dioxetanes in the presence of the enhancer polymers are shown in Table III below.
The enhancer polymers used, and the symbols for such polymers used in Table III, were the following: […]

[1] = biological target: T1, alkaline phosphatase (calf intestine; Biozyme) (Bos taurus, UniProt P19111); assay: Total dephosphorylation, chemiluminescence decay (Example XIII); assay type: biochemical; settings: 30° C., carbonate/bicarbonate buffer
T1 construct: purchased Biozyme; host or cells: calf intestine
T1 sequence (P19111 20-506 limits assumed): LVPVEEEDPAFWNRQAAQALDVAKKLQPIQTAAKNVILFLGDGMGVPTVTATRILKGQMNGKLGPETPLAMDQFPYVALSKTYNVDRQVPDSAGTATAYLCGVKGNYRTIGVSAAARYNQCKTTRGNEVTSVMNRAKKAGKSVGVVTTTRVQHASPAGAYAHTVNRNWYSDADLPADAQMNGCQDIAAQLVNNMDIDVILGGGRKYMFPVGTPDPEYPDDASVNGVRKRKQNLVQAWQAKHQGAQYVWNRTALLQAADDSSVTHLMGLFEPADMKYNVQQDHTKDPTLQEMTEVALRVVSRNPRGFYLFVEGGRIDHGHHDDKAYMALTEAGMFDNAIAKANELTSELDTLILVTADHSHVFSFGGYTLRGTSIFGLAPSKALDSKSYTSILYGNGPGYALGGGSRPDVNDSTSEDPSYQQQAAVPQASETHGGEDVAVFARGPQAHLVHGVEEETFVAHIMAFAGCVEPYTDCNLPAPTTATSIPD

Sequence of alkaline phosphatase (P19111 20-506 limits assumed): as above

COC1(c2cccc(OP(=O)(O)O)c2)OOC12C1CC3CC(C1)CC2C3 (stereo not shown) [AMPPD, 3-(4-methoxyspiro[1,2-dioxetane-3,2'-triyclo[3.3.1.1^3,7]decan]-4-yl)phenyl phosphate, reference compound]
S/N (alkaline phosphatase; polymer BAEDM, 5 min): 107.6 | SIGNAL (alkaline phosphatase; polymer BAEDM, 5 min): 9275.3 | S/N (alkaline phosphatase; polymer BAEDM, 20 min): 306.5 | SIGNAL (alkaline phosphatase; polymer BAEDM, 20 min): 26529.1 | S/N (alkaline phosphatase; polymer BAEDM, time 0): 1.0 | SIGNAL (alkaline phosphatase; polymer BAEDM, time 0 (background, before enzyme)): 217.3 | S/N (alkaline phosphatase; polymer BZ, 5 min): 18.3 | SIGNAL (alkaline phosphatase; polymer BZ, 5 min): 2738.0 | S/N (alkaline phosphatase; polymer BZ, 20 min): 30.9 | SIGNAL (alkaline phosphatase; polymer BZ, 20 min): 4611.5 | S/N (alkaline phosphatase; polymer BZ, time 0): 1.0 | SIGNAL (alkaline phosphatase; polymer BZ, time 0 (background, before enzyme)): 149.4 | S/N (alkaline phosphatase; polymer DAA TMQ, 5 min): 46.4 | SIGNAL (alkaline phosphatase; polymer DAA TMQ, 5 min): 8354.4 | S/N (alkaline phosphatase; polymer DAA TMQ, 20 min): 83.1 | SIGNAL (alkaline phosphatase; polymer DAA TMQ, 20 min): 14957.3 | S/N (alkaline phosphatase; polymer DAA TMQ, time 0): 1.0 | SIGNAL (alkaline phosphatase; polymer DAA TMQ, time 0 (background, before enzyme)): 180.0 | S/N (alkaline phosphatase; polymer DME(OH)B, 5 min): 21.4 | SIGNAL (alkaline phosphatase; polymer DME(OH)B, 5 min): 3462.3 | S/N (alkaline phosphatase; polymer DME(OH)B, 20 min): 52.9 | SIGNAL (alkaline phosphatase; polymer DME(OH)B, 20 min): 8540.9 | S/N (alkaline phosphatase; polymer DME(OH)B, time 0): 1.0 | SIGNAL (alkaline phosphatase; polymer DME(OH)B, time 0 (background, before enzyme)): 161.6 | S/N (alkaline phosphatase; polymer DMEB, 5 min): 52.6 | SIGNAL (alkaline phosphatase; polymer DMEB, 5 min): 9401.5 | S/N (alkaline phosphatase; polymer DMEB, 20 min): 114.4 | SIGNAL (alkaline phosphatase; polymer DMEB, 20 min): 20434.9 | S/N (alkaline phosphatase; polymer DMEB, time 0): 1.0 | SIGNAL (alkaline phosphatase; polymer DMEB, time 0 (background, before enzyme)): 178.6 | S/N (alkaline phosphatase; polymer DMQ TEQ, 5 min): 133.9 | SIGNAL (alkaline phosphatase; polymer DMQ TEQ, 5 min): 32820.5 | S/N (alkaline phosphatase; polymer DMQ TEQ, 20 min): 322.1 | SIGNAL (alkaline phosphatase; polymer DMQ TEQ, 20 min): 78977.4 | S/N (alkaline phosphatase; polymer DMQ TEQ, time 0): 1.0 | SIGNAL (alkaline phosphatase; polymer DMQ TEQ, time 0 (background, before enzyme)): 245.2 | SIGNAL (alkaline phosphatase; polymer EMERALD (sapphire and fluorescein), time 0 (background, before enzyme)): 2902.1 | S/N (alkaline phosphatase; polymer EMERALD, 5 min): 109.4 | SIGNAL (alkaline phosphatase; polymer EMERALD, 5 min): 317571.6 | S/N (alkaline phosphatase; polymer EMERALD, 20 min): 282.1 | SIGNAL (alkaline phosphatase; polymer EMERALD, 20 min): 818775.8 | S/N (alkaline phosphatase; polymer EMERALD, time 0): 1.0 | S/N (alkaline phosphatase; polymer MPB, 5 min): 94.3 | SIGNAL (alkaline phosphatase; polymer MPB, 5 min): 19971.8 | S/N (alkaline phosphatase; polymer MPB, 20 min): 196.9 | SIGNAL (alkaline phosphatase; polymer MPB, 20 min): 41701.8 | S/N (alkaline phosphatase; polymer MPB, time 0): 1.0 | SIGNAL (alkaline phosphatase; polymer MPB, time 0 (background, before enzyme)): 211.8 | S/N (alkaline phosphatase; polymer NONE, 5 min): 21.5 | SIGNAL (alkaline phosphatase; polymer NONE, 5 min, enzyme 2.83×10^-13 M): 3706.0 | S/N (alkaline phosphatase; polymer NONE, 20 min): 34.4 | SIGNAL (alkaline phosphatase; polymer NONE, 20 min, enzyme 2.83×10^-13 M): 5944.8 | S/N (alkaline phosphatase; polymer NONE, time 0): 1.0 | SIGNAL (alkaline phosphatase; polymer NONE, time 0 (background, before enzyme)): 172.6 | S/N (alkaline phosphatase; polymer S/TMQ(1:2), 5 min): 20.2 | SIGNAL (alkaline phosphatase; polymer S/TMQ(1:2), 5 min): 3437.0 | S/N (alkaline phosphatase; polymer S/TMQ(1:2), 20 min): 58.9 | SIGNAL (alkaline phosphatase; polymer S/TMQ(1:2), 20 min): 9994.7 | S/N (alkaline phosphatase; polymer S/TMQ(1:2), time 0): 1.0 | SIGNAL (alkaline phosphatase; polymer S/TMQ(1:2), time 0 (background, before enzyme)): 169.8 | S/N (alkaline phosphatase; polymer S/TMQ(1:4), 5 min): 35.7 | SIGNAL (alkaline phosphatase; polymer S/TMQ(1:4), 5 min): 5931.5 | S/N (alkaline phosphatase; polymer S/TMQ(1:4), 20 min): 95.4 | SIGNAL (alkaline phosphatase; polymer S/TMQ(1:4), 20 min): 15866.3 | S/N (alkaline phosphatase; polymer S/TMQ(1:4), time 0): 1.0 | SIGNAL (alkaline phosphatase; polymer S/TMQ(1:4), time 0 (background, before enzyme)): 116.3 | SIGNAL (alkaline phosphatase; polymer SAPPHIRE (BDMQ), time 0 (background, before enzyme)): 241.4 | S/N (alkaline phosphatase; polymer SAPPHIRE, 5 min): 159.3 | SIGNAL (alkaline phosphatase; polymer SAPPHIRE, 5 min): 38457.8 | S/N (alkaline phosphatase; polymer SAPPHIRE, 20 min): 353.6 | SIGNAL (alkaline phosphatase; polymer SAPPHIRE, 20 min): 85359.8 | S/N (alkaline phosphatase; polymer SAPPHIRE, time 0): 1.0 | SIGNAL (alkaline phosphatase; polymer TBQ-FLUOR (TBQ and fluorescein), time 0 (background, before enzyme)): 4961.2 | S/N (alkaline phosphatase; polymer TBQ-FLUOR, 5 min): 113.9 | SIGNAL (alkaline phosphatase; polymer TBQ-FLUOR, 5 min): 57271.6 | S/N (alkaline phosphatase; polymer TBQ-FLUOR, 20 min): 291.4 | SIGNAL (alkaline phosphatase; polymer TBQ-FLUOR, 20 min): 1445675.6 | S/N (alkaline phosphatase; polymer TBQ-FLUOR, time 0): 1.0 | S/N (alkaline phosphatase; polymer TBQ, 5 min): 191.2 | SIGNAL (alkaline phosphatase; polymer TBQ, 5 min): 94429.4 | S/N (alkaline phosphatase; polymer TBQ, 20 min): 433.9 | SIGNAL (alkaline phosphatase; polymer TBQ, 20 min): 214319.4 | S/N (alkaline phosphatase; polymer TBQ, time 0): 1.0 | SIGNAL (alkaline phosphatase; polymer TBQ, time 0 (background, before enzyme)): 493.9 | S/N (alkaline phosphatase; polymer TEQ, 5 min): 115.3 | SIGNAL (alkaline phosphatase; polymer TEQ, 5 min): 25095.8 | S/N (alkaline phosphatase; polymer TEQ, 20 min): 229.7 | SIGNAL (alkaline phosphatase; polymer TEQ, 20 min): 50020.0 | S/N (alkaline phosphatase; polymer TEQ, time 0): 1.0 | SIGNAL (alkaline phosphatase; polymer TEQ, time 0 (background, before enzyme)): 217.8 | S/N (alkaline phosphatase; polymer TMQ, 5 min): 65.8 | SIGNAL (alkaline phosphatase; polymer TMQ, 5 min): 10525.8 | S/N (alkaline phosphatase; polymer TMQ, 20 min): 141.1 | SIGNAL (alkaline phosphatase; polymer TMQ, 20 min): 22558.3 | S/N (alkaline phosphatase; polymer TMQ, time 0): 1.0 | SIGNAL (alkaline phosphatase; polymer TMQ, time 0 (background, before enzyme)): 159.9 | Total Decay Time [1]: 60 min | Decay Rate I ([1]; RLU's per minute): 0.1 RLU's per minute | Decay Rate II ([1]; RLU's per minute): 0.3 RLU's per minute | Decay Rate III ([1]; RLU's per minute): 0.8 RLU's per minute
